{
  "source": "paper PMC9865214",
  "about": "(International Journal of Molecular Sciences, 2023)",
  "key": {"[1]": {"tested_on": "TLR4 activation-induced cytokine expression", "details": "cited from earlier work", "from_the_text": "The synaptic model of hyperalgesia is the LTP at C-fibre synapses. The induction of hyperalgesia and LTP by inducible mediators including TNFα was discovered and called gliogenic LTP [35]. […] The opioid-mediated effect is established by an exogenous peptide if an opioid receptor is activated or if an endogenous opioid release is induced."}, "[2]": {"tested_on": "inflammatory hyperalgesia", "details": "naltrexone alone; ref [67]; cited from earlier work", "from_the_text": "(§1) The opioid-mediated effect is established by an exogenous peptide if an opioid receptor is activated or if an endogenous opioid release is induced."}, "[3]": {"tested_on": "TLR4 in the TLR4/myeloid differentiation protein-2 heterodimer", "details": "ref [68],[69],[70] (NTX, naloxone), [71] (CTAP); cited from earlier work", "from_the_text": "as §1"}, "chronic pain states": {"tested_on": "chronic pain states", "details": "low-dose NTX, humans; ref [76]; cited from earlier work", "from_the_text": "(§2) The similarity of the first two amino acids in the N-terminal region of CART(62-76) to endogenous opioid peptides raises the possibility that this fragment may also bind to […]. Specific binding studies are necessary to answer this question. […] Further studi ..."}, "[4]": {"tested_on": "chronic constriction injury model", "details": "chronic constriction injury model in rats; ref [75]; cited from earlier work", "from_the_text": "as §2"}, "[5]": {"tested_on": "spinal astrocytes (TNFα secretion)", "test": "TNFα secretion of LPS-stimulated spinal astrocyte cultures, ELISA", "type": "cell-based, Wistar rat", "details": "1 μg/mL LPS, control level set to 100%", "procedure": "(§3) For the production of spinal cord astrocyte cultures, we followed the procedure already described by Pap et al. with slight modifications. Briefly, the whole spinal cord was removed from 7–8 day-old Wistar rat pups after decapitation and was placed into ice-cold dissecting buffer (136 mM NaCl, 5.2 mM KCl, 0.64 mM Na2HPO4, 0.22 mM KH2PO4, 16.6 mM glucose, 22 mM sucrose, 10 mM HEPES supplemented with 0.06 U/mL penicillin and 0.06 U/mL streptomycin). The isolated spinal cords were cleaned of the meninges, then were placed into fresh dissecting solution containing 0.025 g/mL bovine trypsin (Merck–Sigma-Aldrich), and were incubated at 37 °C for 30 min. Then, the solution was replaced by Minimum Essential Medium (MEM, Gibco, Life Technologies Ltd., Parsely, UK) supplemented with 10% Fetal Bovine Serum (FBS, Hyclone, GE Healthcare Bio-Sciences, Pittsburgh, PA, USA). […]\nELISA was performed as already described. […] Colour reaction was developed by o-phenylene-diamine, and the optical density was measured at λ = 492 nm by ELISA plate reader (Titertek, Uniscan, Flow Laboratories, Helsinki, Finland).\nOptical density data were averaged, and the standard error of mean values was calculated for each treatment. […] Statistically significant differences were calculated by one-way ANOVA followed by Student-Newman-Keuls pairwise comparison. […]"}, "[6]": {"tested_on": "spinal astrocytes (DPP4 expression)", "test": "DPP4 expression of spinal astrocytes, western blot", "type": "cell-based, Wistar rat", "details": "1 μg/mL LPS", "procedure": "as §3, with “USA). Finally, cells were suspended by gentle suspension of the tissue pieces by a Pasteur pipette. The cell number was identified, the cell density was set to 1 × 10^6/mL, and the cells were placed into 24 well tissue culture plates (0.5 mL/well).” for “USA).”\nFractions of 50 µg protein/lane cytosol were run on 10% polyacrylamide gels. […] Relative protein levels for DPP4 upon 16 h of LPS treatment were quantified by densitometry in three independent astrocyte cultures and analysed by the Kolmogorov-Smirnov statistical test."}, "[7]": {"tested_on": "spinal astrocytes (DPP4, TLR4, caveolin-1)", "test": "Immunocytochemistry of spinal astrocytes (DPP4, TLR4, caveolin-1)", "type": "cell-based, Wistar rat", "procedure": "as §3, with “USA). Finally, cells were suspended by gentle suspension of the tissue pieces by a Pasteur pipette. The cell number was identified, the cell density was set to 1 × 10^6/mL, and the cells were placed into 24 well tissue culture plates (0.5 mL/well). The cell cultures were kept at 37 °C in a 5% CO2 atmosphere, and the medium was replaced the following day and then every second day.” for “USA).”"}, "[8]": {"tested_on": "hyperalgesia provoked by carrageenan or partial nerve ligation", "details": "no ref given; cited from earlier work", "from_the_text": "Further studies are needed to reveal the signalling mechanism to understand this process."}, "[9]": {"test": "IPI content of L3-L5 spinal segments by mass spectrometry", "type": "in vivo, Wistar rat", "details": "CART(55-76)-treated inflamed rats; LC-MS/MS; p = 0.032 vs inflamed, p = 0.027 vs naive", "procedure": "Three naïve adult male Wistar rats (NG10, NG11, and NG12), 3 rats with unilateral carrageenan-induced hind paw inflammation (GG9, GG10, and GG11), and 3 inflamed rats that received CART(55-76) peptide intrathecally (CG9, CG10, and CG11) were decapitated, and L3–L5 spinal cord segments were removed and snap frozen on dry ice. Tissue was homogenized by sonication in cold acetonitrile (4 °C) in a volume of 10 µL/mg of tissue and centrifuged for 10 min at 14,000 rpm. Supernatant was transferred into Eppendorf tubes and stored at −80 °C until use.\nStandard solution of IPI was used for making the calibration curve in the range of 0–50 ng/mL. […] Water containing 0.1% formic acid (eluent A) and acetonitrile containing 0.1% formic acid (eluent B) were used for separation in gradient mode. […] The initial concentration was reached within 0.5 min, and the equilibration time was 5.5 min. The flow rate was 0.5 mL/minute. Column temperature was ambient. The injection volume was 10 µL. […] MRM transitions were identified in product ion scan mode. […] Dwell times were 150 ms for each transition."}},
  "note": "Structures can show the parent of a compound that is named as a salt.",
  "data": [
    {"molecule": "O=C1CC[C@@]2(O)[C@H]3Cc4ccc(O)c5c4[C@@]2(CCN3CC2CC2)[C@H]1O5", "note": "[NTX, naltrexone hydrochloride]", "values": [
      {"measurement": "Effect on TLR4 agonist-induced cytokine production", "setting": "[1]; ref [72]", "value": "did not block the TLR4 agonist-induced cytokine production"},
      {"measurement": "Effect on inflammatory hyperalgesia", "setting": "[2]", "value": "no effect on inflammatory hyperalgesia"},
      {"measurement": "TLR4 antagonism", "setting": "[3]", "value": "TLR4 antagonists"},
      {"measurement": "Effect in chronic pain states", "setting": "chronic pain states", "value": "effective in a variety of chronic pain states in humans"},
      {"measurement": "Antiallodynic effect", "setting": "[4]", "value": "antiallodynic effect"}
    ]},
    {"molecule": "D-Phe-Cys-Tyr-D-Trp-Arg-Thr-Pen-Thr-NH2 [CTAP]", "values": [
      {"measurement": "TLR4 antagonism", "setting": "[3]", "value": "TLR4 antagonists"}
    ]},
    {"molecule": "lipopolysaccharide [LPS]", "values": [
      {"measurement": "Relative TNFα secretion with LPS", "setting": "[5]", "value": "368 ± 9", "unit": "%"},
      {"measurement": "DPP4 optical density value", "setting": "[6]; 16 h (control 0.62 ± 0.084), densitometry", "value": "1.08 ± 0.059"},
      {"measurement": "DPP4 expression level increase", "setting": "[6]; 16 h, vs control cultures, three independent cultures, ± SEM", "value": "74.3 ± 9.6", "unit": "%"},
      {"measurement": "DPP4 staining intensity", "setting": "[7]; 1 μg/mL LPS, 6 h", "value": "considerably increased"},
      {"measurement": "TLR4 and caveolin-1 subcellular localization", "setting": "[7]; LPS-stimulated cultures, 1 μg/mL", "value": "both proteins were trafficked toward the cell surface"}
    ]},
    {"molecule": "N#C[C@@H]1CCCN1C(=O)CNC12CC3CC(CC(O)(C3)C1)C2", "note": "[vildagliptin]", "values": [
      {"measurement": "Antihyperalgesic effect in neuropathic condition", "setting": "[8]", "value": "antihyperalgesic effects in a neuropathic condition"}
    ]},
    {"molecule": "C=CCN1CC[C@]23c4c5ccc(O)c4O[C@H]2C(=O)CC[C@@]3(O)[C@H]1C5", "note": "[naloxone]", "values": [
      {"measurement": "TLR4 antagonism", "setting": "[3]", "value": "TLR4 antagonists"}
    ]},
    {"molecule": "Cn1c(=O)cc(N2CCC[C@@H](N)C2)n(Cc2ccccc2C#N)c1=O", "note": "[algogliptin]", "values": [
      {"measurement": "Effect on TLR4 activation-induced cytokine expression", "setting": "[1]; IL-6, IL-1β and other cytokines, ref [57]", "value": "decreased the TLR4 activation-induced IL-6, IL-1β, and other cytokine expression"}
    ]},
    {"molecule": "CC[C@H](C)[C@H](N)C(=O)N1CCC[C@H]1C(=O)N[C@H](C(=O)O)[C@@H](C)CC", "note": "[IPI, isoleucine-proline-isoleucine]", "values": [
      {"measurement": "IPI concentration of spinal segments, change", "setting": "[9]", "value": "increased significantly"}
    ]}
  ]
}
